US4620871A (priority 1980, dated 1986)

Assays:
Tobacco callus = assay: Daily growth, cell number and frequency of mitosis of tobacco callus (Example 13); type: cell-based; conditions: for Cell number/g / Daily growth: 10 ppm active agent, 3 weeks
Procedure: An untreated culture medium served as control. Tobacco callus was grown on the treated and untreated culture media (incubation period: 3 weeks), and the daily growth, the increase in cell number and the frequency of mitosis were measured according to the method of Skoog.

Pinto beans = assay: Preservation of chlorophyll in Pinto beans (Example 17); type: in vivo; conditions: zeatin 20 ppm, kinetin/benzyladenine 30 ppm, others 200 ppm; for Extinction: 665 mμ, 200 mg fresh weight, 2 weeks
Procedure: Endogeneous and synthetic cytokinins were applied as comparative substances. Solutions with varying concentrations, but always more dilute than 10^-4 moles, were applied in the tests.
The tests were performed on Pinto beans. The plants were treated with an endogenous cytokinin (zeatine), synthetic cytokinins (kinetin, benzyladenine) or cytokinin-like compounds, respectively, and the chlorophyll content of the leaves was determined 2 weeks after the treatment by measuring the extinction of the extract of the leaves at 665 mμ.

leaves of Pinto bean = assay: Stimulation of photolytic activity, HTO, Pinto bean (Example 23); conditions: 18 hours, zeatin 20, kinetin/benzyladenine 30, others 200 ppm; for Photolytic activity: control 7.64
Procedure: The stimulating effects of an endogeneous cytokinin (zeatin), synthetic cytokinins (kinetin, benzyladenine) and the cytokinin-like regulators according to the invention exerted on the photolytic activity connected to the decomposition of HTO were examined on leaves of Pinto bean. The leaf discs were floated for 18 hours on solutions of the substances under examination, and then exposed to a radioactivity of 200 μCi/100 ml for one hour to effect photolysis of HTO.

Wheat = assay: Stimulation of nutrient uptake, labelled phosphate, wheat (Example 24); conditions: for labelled phosphate in nucleic acid fraction: 200 ppm, control 17.4
Procedure: (§1) The compositions according to the invention were diluted with distilled water to an active agent concentration of 200 ppm, and leaf segments of wheat, maize and pea, weighing 200 mg each, were treated with the solutions. Thereafter the treated green leaf segments were treated for 0.5 hours with a solution of labelled phosphate ions (radioactivity: 30 μCi/50 ml). After this exposition period the treated leaf segments and the untreated controls were processed in a manner known per se to isolate the nucleic acid fractions, and the isolated nucleic acid fractions were dissolved in 6 n ammonium hydroxide solution. Stock solutions were prepared from the resulting solutions, and the amount of labelled phosphate ions present in the stock solutions were measured by liquid scintillation.

Pea = assay: Stimulation of nutrient uptake, labelled phosphate, pea (Example 24); conditions: for labelled phosphate in nucleic acid fraction: 200 ppm, control 23.3
Procedure: as §1

Alfalfa = assay: Total and protein nitrogen content of alfalfa, field (Example 26); type: in vivo; conditions: for Protein nitrogen content: control 2.25; for Total nitrogen content: control 3.36
Procedure: Alfalfa was treated with the compositions according to the invention under large-parcel field conditions. The tests were performed in fourfold replications on parcels 1 hectare in area, each. The oily compositions according to the invention were diluted with water and then sprayed onto the test parcels either once or twice.
The parcels were sprayed first when the soil was already covered with sprouting alfalfa shoots. The second treatment, if any, was performed two weeks later. The dose applied in all of the treatments was 2 kg/ha.
The total nitrogen content and the protein nitrogen content of alfalfa, harvested from the untreated, once-treated and twice-treated parcels, was measured.

maize for silage = assay: Green weight and nitrogen content of maize for silage (Example 28); type: in vivo; conditions: for Green weight: 2 kg/ha to soil, 200 m^2 parcels, control 365; for Total nitrogen content, absolute: control 0.30; for Real protein content, absolute: control 1.35; for Crude proteins, absolute: control 1.85; for Total carbon content, absolute: control 8.99; for Air-dry substance, absolute: control 20.57
Procedure: The tests were performed on parcels 200 m^2 in area. The compositions according to the invention were utilized as solid formulations, and were diluted with water prior to applying them onto the soil. The active agent was applied to the soil in an amount of 2 kg/ha directly before sowing. The green weight of the maize for silage, harvested from the treated and control parcels, was measured, and the dry substance content, crude protein content, real protein content, nitrogen content and carbon content of the green plants were determined.

Soybean = assay: Grain yield of soybean (Example 30); type: in vivo; conditions: 3 x 2 kg/ha; for Grain yield: control 29.53
Procedure: Soybean cultures were sprayed three times with the compositions according to the invention. The active agents were applied in a dosis of 2 kg/ha, in all of the treatments. The stand was sprayed first at the beginning of flowering, then at the flowering of the apical cluster, and finally two weeks after the second treatment.
The grain yield of soybean, harvested from the treated and control parcels, was measured.

Libelulla wheat variety = assay: Grain yield of Libelulla wheat (Example 31); type: in vivo; conditions: for Weight of grains, increase: in vivo; for Weight of grains collected from 100 ears: seed 2 kg/ha + soil 2 kg/ha, control 215.79
Procedure: Two wheat varieties, Libelulla and Mexican 226 K, were utilized in the tests performed under large-parcel field conditions. The sowing seeds were coated with the compositions of the invention according to the wet powder seed dressing technique; a dosis of 2 kg/ha was applied.
The soil was also treated with the compositions according to the invention directly before sowing. A dose of 2 kg/ha was applied.
The grain yields of the wheat varieties, harvested from the treated and control parcels, were measured, and the total nitrogen content and protein nitrogen content of the grains were determined.

sugar beet = assay: Crop yield and sugar content of sugar beet (Example 32); type: in vivo; conditions: for Crop yield: 1 kg/ha seed + 2 x 2 kg/ha, control 541; for Sugar content: after harvesting, control 16.0; for Sugar yield: control 87.56; for Sugar yield, increase: in vivo
Procedure: Glomeruli of sugar beet were treated with the compositions according to the invention (a dose corresponding to 1 kg/ha was applied), and the glomeruli were sown into large parcels. The plants emerged were sprayed twice with the compositions according to the invention, applying a dose of 2 kg/ha, each.
The sugar contents of the plants grown on the treated and control parcels were examined in August.
The crop yield and the sugar content were also determined after harvesting.

grass stands = assay: Crop yield and nitrogen content of grass stand (Example 34); type: in vivo; conditions: for Protein nitrogen content / Total nitrogen content / Crop yield: 3 x 2 kg/ha; for Protein nitrogen content: control 2.80; for Total nitrogen content: control 4.22; for Crop yield: 4 m^2 parcels, control 5.10
Procedure: Tests were performed on grass stands to examine how the compositions according to the invention influence the crop yield, furthermore the total nitrogen content and protein nitrogen content of the crop.
Parcels, 4 m^2 in area, were separated and pegged out on a grass land, and the parcels were sprayed three times with the compositions according to the invention. The liquid compositions were diluted with water prior to spraying, and spraying was repeated in every two weeks. A dose of 2 kg/ha w was applied in each of the treatments.
Thereafter the grass was mowed, the green crop was weighed, and the total nitrogen content and protein nitrogen content of the mowed grass were determined.

What does the source list for `N=C(N)N.N=C(N)N.Oc1nnc(O)c2ccccc12` [1,4-dihydroxyphthalazine diguanidine salt]?
Cell number/g (Tobacco callus): 266.0 10^4 units; Daily growth (Tobacco callus): 19.3 mg; activity at 10 ppm (Tobacco callus; Nicotiana tabacum, 504 h, 10 ppm, untreated control = 100): 117%; Extinction (Pinto beans): 0.985; Promotion (Pinto beans): 46.8%; Stimulation (leaves of Pinto bean): 79%; Photolytic activity (leaves of Pinto bean): 13.72 dpm/mg of glucose; labelled phosphate in nucleic acid fraction (Wheat): 29.3 1000 cpm/g; activation at 200 ppm (Wheat; Triticum aestivum): 68.5%; activation at 200 ppm (Pea): 51.7%; labelled phosphate in nucleic acid fraction (Pea): 38.4 1000 cpm/g; Protein nitrogen content, stimulation (Alfalfa; 1 treatment, 2 kg/ha): 54%; Total nitrogen content, stimulation (Alfalfa; 1 treatment, 2 kg/ha): 24%; Protein nitrogen content (Alfalfa; 1 treatment, 2 kg/ha): 3.48 % of dry substance; Total nitrogen content (Alfalfa; 1 treatment, 2 kg/ha): 4.17 % of dry substance; Green weight (maize for silage): 374 kg; Total nitrogen content, absolute (maize for silage; 2 kg/ha): 0.40%; Real protein content, absolute (maize for silage; 2 kg/ha): 1.71%; Crude proteins, absolute (maize for silage; 2 kg/ha): 2.52%; Total carbon content, absolute (maize for silage; 2 kg/ha): 9.99%; Air-dry substance, absolute (maize for silage; 2 kg/ha): 22.79%; Grain yield, increase (Soybean): 39%; Grain yield (Soybean): 41.22 q/ha; Weight of grains, increase (Libelulla wheat variety): 7%; Weight of grains collected from 100 ears (Libelulla wheat variety): 232.35 g; Crop yield (sugar beet): 608 q/ha; Sugar content (sugar beet): 16.45%; Sugar yield (sugar beet): 100.01 q/ha; Sugar yield, increase (sugar beet): 14%; Protein nitrogen content (grass stands): 2.62%; Total nitrogen content (grass stands): 3.89%; Crop yield (grass stands): 5.35

With `CCC[n+]1c[nH]c2ccccc21.[Br-]` [N--(n-Propyl)-benzimidazolium bromide, N-(n-propyl)-benzimidazolium bromide] as the compound, how does the Cell number/g (Tobacco callus) read?
The Cell number/g was 327.5 10^4 units.

What about the Daily growth (Tobacco callus) of the same compound?
The Daily growth was 22.8 mg.

What about the Extinction (Pinto beans) of the same compound?
Its Extinction is 1.081.

What about the Promotion (Pinto beans) of the same compound?
Its Promotion is 61.2%.

And the Stimulation (leaves of Pinto bean)?
The Stimulation was 84%.

What about the Photolytic activity (leaves of Pinto bean) of the same compound?
Its Photolytic activity is 14.08 dpm/mg of glucose.

And the “labelled phosphate in nucleic acid fraction” value (Wheat)?
The value was 22.8 1000 cpm/g.

What about the “labelled phosphate in nucleic acid fraction” value (Pea) of the same compound?
The value was 32.7 1000 cpm/g.

And the “Protein nitrogen content, stimulation” value (Alfalfa; 1 treatment, 2 kg/ha)?
The value was 8%.

And the “Total nitrogen content, stimulation” value (Alfalfa; 1 treatment, 2 kg/ha)?
The value was 4%.

And the Protein nitrogen content (Alfalfa; 1 treatment, 2 kg/ha)?
Its Protein nitrogen content is 2.48 % of dry substance.

What about the Total nitrogen content (Alfalfa; 1 treatment, 2 kg/ha) of the same compound?
The Total nitrogen content was 3.51 % of dry substance.

And the “Protein nitrogen content, stimulation” value (Alfalfa; 2 treatments, 2 kg/ha each)?
The value was 22%.

And the “Total nitrogen content, stimulation” value (Alfalfa; 2 treatments, 2 kg/ha each)?
The value was 13%.

And the Protein nitrogen content (Alfalfa; 2 treatments, 2 kg/ha each)?
The Protein nitrogen content was 2.75 % of dry substance.

What about the Total nitrogen content (Alfalfa; 2 treatments, 2 kg/ha each) of the same compound?
Its Total nitrogen content is 3.91 % of dry substance.

What about the “Air-dry substance, relative” value (maize for silage; 2 kg/ha) of the same compound?
The value was 14.10%.

What about the “Crude proteins, relative” value (maize for silage; 2 kg/ha) of the same compound?
The value was 21.7%.

What about the “Real protein content, relative” value (maize for silage; 2 kg/ha) of the same compound?
The value was 4.4%.

And the Green weight (maize for silage)?
The Green weight was 389 kg.

And the “Total nitrogen content, absolute” value (maize for silage; 2 kg/ha)?
The value was 0.86%.

What about the “Real protein content, absolute” value (maize for silage; 2 kg/ha) of the same compound?
The value was 1.4%.

And the “Crude proteins, absolute” value (maize for silage; 2 kg/ha)?
Its value is 2.25%.

And the “Total carbon content, absolute” value (maize for silage; 2 kg/ha)?
Its value is 10.27%.

What about the “Air-dry substance, absolute” value (maize for silage; 2 kg/ha) of the same compound?
The value was 23.48%.

And the Carbon/nitrogen ratio (maize for silage; 2 kg/ha, control 30.86)?
Its Carbon/nitrogen ratio is 28.67.

And the “Grain yield, increase” value (Soybean)?
Its value is 30%.

And the Grain yield (Soybean)?
The Grain yield was 38.67 q/ha.

And the “Weight of grains, increase” value (Libelulla wheat variety)?
The value was 65%.

And the “Weight of grains collected from 100 ears” value (Libelulla wheat variety)?
The value was 357.73 g.

What about the Crop yield (sugar beet) of the same compound?
The Crop yield was 877 q/ha.

What about the Sugar content (sugar beet) of the same compound?
The Sugar content was 17.05%.

And the Sugar yield (sugar beet)?
The Sugar yield was 149.49 q/ha.

What about the “Sugar yield, increase” value (sugar beet) of the same compound?
Its value is 70%.

What about the Protein nitrogen content (grass stands) of the same compound?
The Protein nitrogen content was 3.54%.

And the Total nitrogen content (grass stands)?
Its Total nitrogen content is 5.36%.

What about the Crop yield (grass stands) of the same compound?
The Crop yield was 5.27.

What about the “Protein nitrogen content, increase” value (grass stands; in vivo) of the same compound?
Its value is 26.4%.

And the “Total nitrogen content, increase” value (grass stands; in vivo)?
The value was 27.0%.
